According to patent US20210393645A1, “TREATMENT FOR PROGRESSIVE MULTIPLE SCLEROSIS” (UTI LIMITED PARTNERSHIP, priority 2016, published 2021):
Where a name gives a salt, the structure may show the parent alone.

system: human neurons; assay: Iron (FeSO4) mediated neurotoxicity screening, MAP-2 positive neurons counted; format: cell-based; settings: not given
Method: Human neurons were isolated from brain tissues of therapeutically aborted 15-20 week old fetuses, in accordance with ethics approval of the University of Calgary ethics committee, after written informed consent of the pregnant donors. Neurons were isolated as previously described (Vecil et al., 2000) brain specimens were washed in phosphate buffered saline (PBS) to remove blood, followed by removal of meninges. […] Thereafter, the digestion was stopped by addition of 4 ml fetal calf serum (FCS). […] Cells were cultured in feeding medium of minimal essential medium (MEM) supplemented with 10% fetal bovine serum (FBS), 1 μM sodium pyruvate, 10 μM glutamine, 1× non-essential amino acids, 0.1% dextrose and 1% penicillin/streptomycin (all culture supplements from Invitrogen, Burlington, Canada). […] For experiments, the neuron-enriched cultures were retrypsinized and cells were plated in poly-L-ornithine pre-coated 96-well plates at a density of 100,000 cells/well in 100 μl of the complete medium supplemented with cytosine arabinoside. […] All conditions were performed in quadruplicates. A day later cells were fixed using 4% paraformaldehyde (PFA) and stored in PBS in 4° C.
Briefly, there were 80 compounds located in specific wells on each plate (e. g. B07). […] Each compound was supplied at a concentration of 10 mM dissolved in DMSO.
After filtering with a 0.2 μm filter, FeSO4 was added to cells in a final concentration of 25-50 μM in a volume of 50 μl medium to the cells. Rotenone was dissolved in dimethyl sulfoxide (DMSO) and used in a final concentration of 10 μM.
Staining was performed at room temperature. A blocking buffer was first introduced for 1 h followed by incubation with primary antibody overnight in 4° C.
Cell nuclei were stained with Hoechst S769121 (nuclear yellow). Cells were stored in 4° C. in the dark before imaging.
Images were taken using the automated ImageXpress® imaging system (Molecular Devices, Sunnyvale, Calif.) through a 10x objective microscope lens, displaying 4 or 9 sites per well. […] Cells were defined according to fluorescence intensity and size at different wavelengths. Data from all sites per well were averaged to one data point.
Neurons were pre-incubated with each compound for 1 h followed by application of FeSO4.

| SMILES | Drug % control (mean): number of neurons normalized to untreated control [%] |
| --- | --- |
| N[C@@H]1C[C@H]1c1ccccc1.N[C@H]1C[C@@H]1c1ccccc1.O=S(=O)(O)O [TRANYLCYPROMINE SULFATE] | 21.59 |

same assay, conditions: Homo sapiens, Neuron, 24 h, read-out: Drug % control (mean): number of neurons normalized to untreated control

| SMILES | viability at 10 µM [%] |
| --- | --- |
| CO[C@H]1/C=C/O[C@@]2(C)Oc3c(C)c(O)c4c(O)c(c(/C=N/N5CCN(C)CC5)c(O)c4c3C2=O)NC(=O)/C(C)=C\C=C\[C@H](C)[C@H](O)[C@@H](C)[C@@H](O)[C@@H](C)[C@H](OC(C)=O)[C@@H]1C [RIFAMPIN] | 95.5 |

same assay, conditions: Homo sapiens, Neuron; drug 10 μM 1 h before FeSO4 25 or 50 μM; MAP-2 neurons after 24 h; read-out: Drug % control (mean): number of neurons normalized to untreated control

| SMILES | viability at 10 µM [%] |
| --- | --- |
| OCCN(CCO)c1nc(N2CCCCC2)c2nc(N(CCO)CCO)nc(N3CCCCC3)c2n1 [DIPYRIDAMOLE] | 165 |
| Nc1ccc(S(=O)(=O)c2ccc(N)cc2)cc1 [DAPSONE] | 18.6 |
| Cc1cnc(NC(=O)C2=C(O)c3ccccc3S(=O)(=O)N2C)s1 [MELOXICAM] | 59.5 |
| CCOC(=O)[C@H](CCc1ccccc1)N[C@@H](C)C(=O)N1[C@H](C(=O)O)C[C@H]2CCCC[C@@H]21 [TRANDOLAPRIL] | 72.3 |
| CS(=O)(=O)OCCCCOS(C)(=O)=O [BUSULFAN] | 13.3 |
| COc1c(C)c2c(c(O)c1C/C=C(\C)CCC(=O)O)C(=O)OC2 [MYCOPHENOLIC ACID] | 45.7 |
| CC(=O)/N=c1/sc(S(N)(=O)=O)nn1C [METHAZOLAMIDE] | 54.3 |
| CCOC(=O)N1CCC(=C2c3ccc(Cl)cc3CCc3cccnc32)CC1 [LORATADINE] | 44.3 |
| CC(C)NCC(O)COc1cccc2[nH]ccc12 (stereo not drawn) [PINDOLOL] | 62.6 |
| CN[C@@H](C)[C@@H](O)c1ccccc1 [PSEUDOEPHEDRINE HYDROCHLORIDE] | 26.7 |
| CCOC(=O)[C@H](CCc1ccccc1)N[C@@H](C)C(=O)N1Cc2ccccc2C[C@H]1C(=O)O [QUINAPRIL HYDROCHLORIDE] | 41.5 |
| CC[C@H]1OC(=O)[C@H](C)[C@@H](O[C@H]2C[C@@](C)(OC)[C@@H](O)[C@H](C)O2)[C@H](C)[C@@H](O[C@@H]2O[C@H](C)C[C@H](N(C)C)[C@H]2O)[C@](C)(OC)C[C@@H](C)C(=O)[C@H](C)[C@@H](O)[C@]1(C)O [CLARITHROMYCIN] | 55.1 |
| Cc1ccc(S(=O)(=O)NC(=O)NN2CC3CCCC3C2)cc1 (stereo not drawn) [GLICLAZIDE] | 47.3 |
| C[C@@H]1O[C@@H]1P(=O)(O)O [FOSFOMYCIN] | 31.2 |
| CCCc1cc(=O)[nH]c(=S)[nH]1 [PROPYLTHIOURACIL] | 35.9 |
| COc1ccc2c(c1)[C@]13CCCC[C@@H]1[C@H](C2)N(C)CC3 [DEXTROMETHORPHAN HYDROBROMIDE] | 3.49 |
| CC[C@H](C)C(=O)O[C@H]1C[C@H](O)C=C2C=C[C@H](C)[C@H](CC[C@@H](O)C[C@@H](O)CC(=O)O)[C@H]21 [PRAVASTATIN SODIUM] | 40.5 |
| S=c1nc[nH]c2nc[nH]c12 [MERCAPTOPURINE] | 1.73 |
| NC(=O)C[S+]([O-])C(c1ccccc1)c1ccccc1 (stereo not drawn) [MODAFINIL] | 43.9 |
| CC(C)Cc1ccc(C(C)C(=O)O)cc1 (stereo not drawn) [IBUPROFEN] | 2.48 |
| CCC1(C)CC(=O)NC1=O (stereo not drawn) [ETHOSUXIMIDE] | 74.3 |
| COc1ccc(Cl)cc1C(=O)NCCc1ccc(S(=O)(=O)NC(=O)NC2CCCCC2)cc1 [GLYBURIDE] | 45.2 |
| OC(CCN1CCCC1)(c1ccccc1)C1CCCCC1 (stereo not drawn) [PROCYCLIDINE HYDROCHLORIDE] | 95.6 |
| CCOC(=O)C1=C(COCCN)NC(C)=C(C(=O)OC)C1c1ccccc1Cl (stereo not drawn) [AMLODIPINE BESYLATE] | 93.1 |
| CCC[C@H](N[C@@H](C)C(=O)N1[C@H](C(=O)O)C[C@@H]2CCCC[C@@H]21)C(=O)OCC [PERINDOPRIL ERBUMINE] | 49.4 |
| C[C@H]1COc2c(N3CCN(C)CC3)c(F)cc3c(=O)c(C(=O)O)cn1c23 [LEVOFLOXACIN] | 56.4 |
| CCCc1nn(C)c2c(=O)[nH]c(-c3cc(S(=O)(=O)N4CCN(C)CC4)ccc3OCC)nc12 | 49.3 |
| CC(NC(C)(C)C)C(=O)c1cccc(Cl)c1 (stereo not drawn) [BUPROPION] | 55.5 |

| SMILES | viability at 10 µM [%] |
| --- | --- |
| NC[C@H]1CC[C@H](C(=O)O)CC1 [TRANEXAMIC ACID] | 36.3 |
| CC(=O)S[C@@H]1CC2=CC(=O)CC[C@]2(C)[C@H]2CC[C@@]3(C)[C@@H](CC[C@@]34CCC(=O)O4)[C@H]12 [SPIRONOLACTONE] | 37.1 |
| CN1C(C(=O)Nc2ccccn2)=C(O)c2ccccc2S1(=O)=O [PIROXICAM] | 36.2 |
| COc1ccccc1OCC(O)COC(N)=O (stereo not drawn) [METHOCARBAMOL] | 0.84 |
| CCOC(=O)[C@H](CCc1ccccc1)N[C@@H](C)C(=O)N1CCC[C@H]1C(=O)O [ENALAPRIL MALEATE] | 41 |
| CC(C)(Oc1ccc(CCNC(=O)c2ccc(Cl)cc2)cc1)C(=O)O [BEZAFIBRATE] | 35.5 |
| COc1c2occc2cc2ccc(=O)oc12 [METHOXSALEN] | 59 |
| CN(C)CCOC(c1ccccc1)c1ccccc1 [DIPHENHYDRAMINE HYDROCHLORIDE] | 74.7 |
| CCCCCCCCCCC[C@@H](C[C@@H]1OC(=O)[C@H]1CCCCCC)OC(=O)[C@H](CC(C)C)NC=O [ORLISTAT] | 1 |
| NS(=O)(=O)c1cc(C(=O)O)c(NCc2ccco2)cc1Cl [FUROSEMIDE] | 3.96 |
| CN(C)c1nc(N(C)C)nc(N(C)C)n1 [ALTRETAMINE] | 4.2 |
| C[C@H](CS)C(=O)N1CCC[C@H]1C(=O)O [CAPTOPRIL] | 35.3 |
| Nc1ccc(/N=N/c2ccccc2)c(N)n1 [PHENAZOPYRIDINE HYDROCHLORIDE] | 101 |
| NC(=O)N1c2ccccc2C=Cc2ccccc21 [CARBAMAZEPINE] | 13.3 |
| CCCC1O[C@@H]2C[C@H]3[C@@H]4CCC5=CC(=O)C=C[C@]5(C)[C@H]4[C@@H](O)C[C@]3(C)[C@]2(C(=O)CO)O1 (stereo partly drawn) [BUDESONIDE] | 70 |
| CC(=O)Oc1ccccc1C(=O)O [ASPIRIN] | 68.2 |
| CN(C)C(=O)C(CCN1CCC(O)(c2ccc(Cl)cc2)CC1)(c1ccccc1)c1ccccc1 [LOPERAMIDE HYDROCHLORIDE] | 55.5 |
| CCCCCCc1ccc(O)cc1O [HEXYLRESORCINOL] | 71.5 |
| CC[C@H]1OC(=O)[C@H](C)[C@@H](O[C@H]2C[C@@](C)(OC)[C@@H](O)[C@H](C)O2)[C@H](C)[C@@H](O[C@@H]2O[C@H](C)C[C@H](N(C)C)[C@H]2O)[C@](C)(O)C[C@@H](C)CN(C)[C@H](C)[C@@H](O)[C@]1(C)O [AZITHROMYCIN] | 56.8 |
| CCN(CC)CCNC(=O)c1cc(Cl)c(N)cc1OC [METOCLOPRAMIDE HYDROCHLORIDE] | 37.9 |
| OCCN1CCN(CCCN2c3ccccc3Sc3ccc(C(F)(F)F)cc32)CC1 [FLUPHENAZINE HYDROCHLORIDE] | 12.1 |
| C[N+](C)(C)CCOC(N)=O [CARBACHOL] | 8.87 |
| O=C(c1ccccc1)c1ccc2n1CCC2C(=O)O (stereo not drawn) [KETOROLAC TROMETHAMINE] | 52.4 |
| NC(=O)N1c2ccccc2CC(=O)c2ccccc21 [OXCARBAZEPINE] | 38.2 |
| Cc1cc(NS(=O)(=O)c2ccc(N)cc2)no1 [SULFAMETHOXAZOLE] | 16.2 |
| CN(C)CCC=C1c2ccccc2CCc2ccccc21 [AMITRIPTYLINE HYDROCHLORIDE] | 34.8 |
| OCCN1CCN(CCCN2c3ccccc3Sc3ccc(Cl)cc32)CC1 [PERPHENAZINE] | 78.8 |

same assay, conditions: drug 10 μM 1 h before FeSO4 25 or 50 μM; MAP-2 neurons after 24 h

| SMILES | Drug % control (mean): number of neurons normalized to untreated control [%] |
| --- | --- |
| Cc1cn([C@H]2C[C@H](N=[N+]=[N-])[C@@H](CO)O2)c(=O)[nH]c1=O [ZIDOVUDINE [AZT]] | 66.49 |
| Nc1nc(=O)c2c([nH]1)NCC(CNc1ccc(C(=O)N[C@@H](CCC(=O)[O-])C(=O)[O-])cc1)N2C=O.[Ca+2] (stereo partly drawn) [LEUCOVORIN CALCIUM] | 24.84 |

system: T-cells; assay: Proliferation of T-lymphocytes (3H-thymidine) in anti-CD3/anti-CD28 activated splenocytes; format: cell-based, mouse; settings: Mus musculus, T-cell, 72 h; drug 10 μM, vs activated splenocytes; read-out: mean reduction of 3H-thymidine incorporation (T-cell proliferation)
Method: A previously published protocol was used for isolating and activating T-cells (Keough et al., Nature Comm 7:11312, 2016). Spleens from female C57B16 mice were harvested and after mechanical dissociation the cell suspension was passed through a 70 μm cell strainer and separated by Ficoll gradient (1800 RPM, 30 min). Splenocytes were plated (2.5×10^5 cells in 100 μl/well) in anti-CD3 antibody coated 96-well plates (1,000 ng m1^−1 plate-bound anti-CD3 and 1,000 ng m1^−1 anti-CD28 suspended in media) to activate T-cells. Directly before plating, wells were treated with respective drugs in a final concentration of 10 μM. Cells were cultured in RPMI 1640 medium, supplemented with 10% FBS, 1 μM sodium pyruvate, 2 mM L-alanyl-L-glutamine, 1% penicillin/streptomycin, 1% HEPES and 0.05 mM 2-mercaptoethanol (all supplements were from Invitrogen). After 48 h, ^3H-thymidine was added in a concentration of 1 μCi per well, and cells were harvested after 24 h on filter mats. Mats were then evaluated for radioactivity (counts per minute) using a liquid scintillation counter.

| SMILES | inhibition at 10 µM [%] |
| --- | --- |
| OCCN(CCO)c1nc(N2CCCCC2)c2nc(N(CCO)CCO)nc(N3CCCCC3)c2n1 [DIPYRIDAMOLE] | 89.3 |
